For experiment [1], the system named is sub-genomic HCV replicon of genotype 1a. Put plainly: ELISA (NS5A protein level) in sub-genomic replicon 1a cell line W11.8. It counts as cell-based. The conditions noted are these: for IC50: W11.8, Table 4; for IC99 (nM) (1a): Table 4. An excerpt: Activity Determination Using the ELISA and the Sub-Genomic Replicon 1a Cell Line
The cell line W11.8 containing the sub-genomic HCV replicon of genotype 1a is used to determine the potency of the drugs. The RNA replication in presence of different drug concentrations is indirectly measured in this cell line by the level of NS5A protein content upon drug treatment for four days. It is shown that the level of the NS5A protein correlates well with the level of HCV RNA in the replicon cell line. Cells are split twice a week in order to keep the confluence state below 85% of the culture flask surface area. The culture media used for cell passaging consists of DMEM-10% foetal bovine serum with 100 UI/mL penicillin, 100 μg/mL streptomycin, 2 mM glutamine, 1 mM sodium pyruvate, non-essential amino acids (1×) and 600 μg/mL of G418 final concentrations. Monolayer of the W11.8 cells is trypsinized and cells are counted. Cells are diluted at 50,000 cells/mL with complete DMEM without G418, then approximately 5,000 viable cells (100 μL) are plated per well in a white opaque 96-well microtiter plate. After an incubation period of 2-4 hours at 37° C. in a 5% CO2 incubator, compounds are added at various concentrations. Drugs are resuspended in DMSO at a stock concentration of 10 mM. Then, drugs are serially diluted at twice the final concentration in the same medium. One volume (100 μL) of each drug dilution is then added to each well that contains cells. A control compound is used as an internal standard for each plate assay. Sixteen wells are used as control (0% inhibition) without drug. […] Values from 100% inhibited wells were averaged and used as the background value. Cells are further incubated for four days at 37° C. in a 5% CO2 incubator. Following the incubation time of four days, the media is removed and wells are washed once with 150 μL of PBS at room temperature for five minutes. Cells are then fixed for five minutes using 150 μL per well of cold (−20° C.) fixative solution (50% methanol/50% acetone mix). Cells are then washed twice with 150 μL of PBS (phosphate buffered saline) per well, following the addition of 150 μL of blocking solution, cells are incubated for one hour at 37° C. to block non-specific sites. The blocking solution is removed and cells are washed twice with 150 μL of PBS per well and once with 150 μL of PBSTS solution (PBS/0.1% Triton X-100/0.02% SDS) per well. Then, 50 μL of mouse monoclonal anti-NS5A antibody (Santa Cruz, Cat. No. sc-52417) is added in each well, diluted 1/1,000 in the blocking solution and incubated at 4° C. overnight. Next day, media is removed and plates are washed five times with 150 μL of PBS per well with five-minute incubations at room temperature. Then 50 μL per well of peroxidase-conjugated donkey anti-mouse antibody (Jackson Immunoresearch, Cat. No. 715-036-150) diluted 1/10,000 in the blocking solution is added and incubated at room temperature for three hours on a shaker (500 rpm). Plates are washed four times with 150 μL of PBSTS solution per well and once with 150 μL of PBS. Then, substrate solution (100 μl, SuperSignal ELISA Pico Chemiluminescent Substrate, Fisher Cat. No. 37069) is added in each well and plates are incubated 60 minutes at room temperature prior to reading the luminescence (relative light units) on the Analyst HT plate reader. The percentage of inhibition at each drug concentration tested (in duplicate) is calculated.
For orientation: An ELISA detects its analyte on a solid surface through an enzyme-linked reagent.

The test system of experiment [2] is HCV (1b) RNA replication (replicon I389Luc-ubi-neo/NS3-3′/5.1). Description: Cell-based luciferase reporter HCV (1b) RNA replication assay, Huh-ET cells. The conditions noted are these: for IC50 / pEC50: Hepatitis C virus; for IC50 / IC99 (nM) (1b): Table 4, sub-genomic replicon 1b cell line; for pEC50: HCV genotype 1b replicon. An excerpt: Cell-Based Luciferase Reporter HCV (Ib) RNA Replication Assay Cell Culture
Replicon cell lines Huh-5.2 are derived from the Huh-7 hepatocarcinoma cell line are maintained in culture as generally described in Krieger, N; Lohmann, V; Bartenschlager, R. Enhancement of hepatitis C virus RNA replication by cell culture-adaptive mutations. J. Virol. 2001, 75, 4614-4624. The Huh-5.2 cells contain the highly cell culture-adapted replicon I389Luc-ubi-neo/NS3-3′/5.1 construct that carries, in addition to the neomycin gene, an integrated copy to the firefly luciferase gene (Krieger, N; Lohmann, V; Bartenschlager, R. Enhancement of hepatitis C virus RNA replication by cell culture-adaptive mutations. J. Virol. 2001, 75, 4614-4624). This cell line allows measurement of HCV RNA replication and translation by measuring luciferase activity. It has been previously shown that the luciferase activity tightly follows the replicon RNA level in these cells (Krieger, N; Lohmann, V; Bartenschlager, R. Enhancement of hepatitis C virus RNA replication by cell culture-adaptive mutations. J. Virol. 2001, 75, 4614-4624). The Huh-ET cell line has the same features as those mentioned for Huh-5.2 cell line, except that ET cells are more robust and contain an adaptative mutation in the HCV NS4B gene instead of NSSA. Both cell lines are maintained in cultures at a sub-confluent level (<85%) as the level of replicon RNA is highest in actively proliferating cells. The culture media used for cell passaging consist of DMEM (Gibco BRL Laboratories, Mississauga, ON, Canada) supplemented with 10% foetal bovine serum with 1% penicilin/streptomycin, 1% glutamine, 1% sodium pyruvate, 1% non-essential amino acids, and 180 μg/ml of G418 final concentration. Cells are incubated at 37° C., in an atmosphere of 5% CO2 and passaged twice a week to maintain sub-confluence.
Approximately 3000 viable Huh-ET cells (100 μl) are plated per well in a white opaque 96-well microtiter plate. The cell culture media used for the assay is the same as described above except that it contains no G418 and no phenol red. After an incubation period of 3-4 hours at 37° C. in a 5% CO2 incubator, compounds (100 μl) are added at various concentrations. Cells are then further incubated for 4 days at 37° C. in a 5% CO2 incubator. Thereafter, the culture media is removed and cells are lysed by the addition of 95 μL of the luciferase buffer (luciferin substrate in buffered detergent). Cell lysates are incubated at room temperature and protected from direct light for at least 10 minutes. Plates are read for luciferase counts using a luminometer (Wallac MicroBeta Trilux, Perkin Elmer™, MA, USA).
Curves are fitted to data points using nonlinear regression analysis, and IC50s are interpolated from the resulting curve using GraphPad Prism software, version 2.0 (GraphPad Software Inc., San Diego, Calif., USA).

Setting [3] is: Hepatitis C virus, W11.8, read-out: EC50 (μM) (1a), Table 3.

pEC50: −log10 of the molar value. Where two headings read alike, the source gives them in different places. Some results are limits rather than exact numbers.

Usually IC50 stands for the concentration that inhibits the measured activity by half. A high value points to a need for much substance. One may read the EC50 as the midpoint of the concentration-response curve. As usually defined, the pEC50 is the EC50 on a negative log10 scale, so that one unit is a factor of ten. High values mean a small EC50, low ones a large EC50.

For `COC(=O)N[C@H](C(=O)N1C[C@@H](C)C[C@H]1c1nc2sc(-c3ccc(-c4ccc5[nH]c([C@@H]6CC[C@H](C)N6C(=O)[C@@H](NC(=O)OC)C(C)C)nc5c4)cc3)cc2[nH]1)C(C)C` [Compound 2c], in experiment [1] (Hepatitis C virus), half-maximal inhibition (IC50) required 0.619 nM. Also, the “IC99 (nM) (1a)” value in experiment [1] worked out at 10.038 nM. In experiment [2], the IC50 is 0.005 nM and the “IC99 (nM) (1b)” value is reported as 0.303 nM. `COC(=O)N[C@H](C(=O)N1C[C@@H](C)C[C@H]1c1nc2cc(C#Cc3cc4[nH]c([C@@H]5C[C@H](C)CN5C(=O)[C@@H](NC(=O)OC)C(C)C)nc4s3)ccc2[nH]1)C(C)C` [Compound 2b]: the half-maximal effective concentration (EC50) in experiment [1] (setting [3]) was 0.0403 µM; in experiment [1] (read-out: EC50 (μM) (1a), Table 3), 0.0377 µM. As for `COC(=O)N[C@H](C(=O)N1CCCC1c1nc2cc(C#Cc3cc4[nH]c([C@@H]5CCCN5C(=O)[C@@H](NC(=O)OC)C(C)C)nc4s3)ccc2[nH]1)C(C)C` (stereo partly drawn) [Compound 1b], in experiment [1] (setting [3]), the half-maximal effective concentration (EC50) stood at 0.828 µM.

For `COC(=O)NC(C(=O)N1C[C@@H](C)C[C@H]1c1nc2sc(-c3ccc(-c4ccc5[nH]c([C@@H]6C[C@H](C)CN6C(=O)[C@@H](NC(=O)OC)C(C)C)nc5c4)cc3)cc2[nH]1)C(C)C` (stereo partly drawn) [Compound 1c], the IC50 in experiment [1] (Hepatitis C virus) was 1.65 nM. Also, the “IC99 (nM) (1a)” value in experiment [1] is on record as 11.155 nM. Moreover, in experiment [2], the IC50 is 0.011 nM and the “IC99 (nM) (1b)” value was 0.207 nM. In the case of `COC(=O)N[C@H](C(=O)N1C[C@@H](C)C[C@H]1c1nc(-c2cc3sccc3s2)c(-c2ccc(-c3cc4nc([C@@H]5C[C@H](C)CN5C(=O)[C@@H](NC(=O)OC)C(C)C)[nH]c4s3)cc2)[nH]1)C(C)C` [Compound 16], the pEC50 in experiment [2] (Table 2A) is at least 8.30. In experiment [2] (Table 2A), `COC(=O)N[C@H](C(=O)N1C[C@@H](C)C[C@H]1c1ncc(-c2ccc(-c3ccc(-c4cc5[nH]c([C@@H]6C[C@H](C)CN6C(=O)[C@@H](NC(=O)OC)C(C)C)nc5s4)cc3)s2)[nH]1)C(C)C` [Compound 25] showed a pEC50 of at least 8.30.

In turn, `COC(=O)N[C@H](C(=O)N1C[C@@H](C)C[C@H]1c1ncc(C#Cc2ccc(-c3cc4[nH]c([C@@H]5C[C@H](C)CN5C(=O)[C@@H](NC(=O)OC)C(C)C)nc4s3)cc2)[nH]1)C(C)C` [Compound 12] gave a pEC50 in experiment [2] (Table 2A) of at least 8.30.

`COC(=O)N[C@H](C(=O)N1C[C@@H](C)C[C@H]1c1nc(-c2ccc(-c3ccc(-c4cc5[nH]c([C@@H]6C[C@H](C)CN6C(=O)[C@@H](NC(=O)OC)C(C)C)nc5s4)cc3F)cc2)c[nH]1)C(C)C` [Compound 6a] gave a negative logarithm of the EC50 (pEC50) in experiment [2] (Table 2B) of at least 8.30. The molecule `COC(=O)N[C@H](C(=O)N1C[C@@H](C)C[C@H]1c1nc(-c2ccc(-c3ccc(-c4cc5[nH]c([C@@H]6C[C@H](C)CN6C(=O)[C@@H](NC(=O)OC)C(C)C)nc5s4)cc3C)cc2)c[nH]1)C(C)C` [Compound 8a] had a pEC50 in experiment [2] (Table 2B) of at least 8.30. The molecule `COC(=O)N[C@H](C(=O)N1C[C@@H](C)C[C@H]1c1ncc(-c2cc3sc(-c4ccc(-c5cc6[nH]c([C@@H]7C[C@H](C)CN7C(=O)[C@@H](NC(=O)OC)C(C)C)nc6s5)cc4)cc3s2)[nH]1)C(C)C` [Compound 29] gave a pEC50 in experiment [2] (Table 2A) of at least 8.30.

Molecule `COC(=O)N[C@H](C(=O)N1C[C@@H](C)C[C@H]1c1ncc(C#Cc2ccc(-c3ccc(-c4cc5[nH]c([C@@H]6C[C@H](C)CN6C(=O)[C@@H](NC(=O)OC)C(C)C)nc5s4)cc3)cc2)[nH]1)C(C)C` [Compound 15] had a pEC50 in experiment [2] (Table 2A) of at least 8.30. With `COC(=O)N[C@H](C(=O)N1C[C@@H](C)C[C@H]1c1nc(I)c(-c2ccc(-c3ccc(-c4cc5nc([C@@H]6C[C@H](C)CN6C(=O)[C@@H](NC(=O)OC)C(C)C)[nH]c5s4)cc3)cc2)[nH]1)C(C)C` [Compound 3a], the pEC50 in experiment [2] (Table 2B) was at least 8.30. Take `COC(=O)N[C@H](C(=O)N1C[C@@H](C)C[C@H]1c1nc(-c2cccc(-c3ccc(-c4cc5nc([C@@H]6C[C@H](C)CN6C(=O)[C@@H](NC(=O)OC)C(C)C)[nH]c5s4)cc3)c2)c[nH]1)C(C)C` [Compound 20]: the pEC50 in experiment [2] (Table 2A) is at least 8.30. `COC(=O)N[C@H](C(=O)N1C[C@@H](C)C[C@H]1c1nc2sc(C#CC#Cc3cc4[nH]c([C@@H]5C[C@H](C)CN5C(=O)[C@@H](NC(=O)OC)C(C)C)nc4s3)cc2[nH]1)C(C)C` [Compound 4b]: in experiment [1] (setting [3]), the EC50 was determined as 0.184 µM. For the molecule `COC(=O)N[C@H](C(=O)N1CCCC1c1nc2cc(C#Cc3cc4[nH]c([C@@H]5CCCN5C(=O)[C@@H](NC(=O)OC)C(C)C)nc4s3)ccc2[nH]1)C(C)C` (stereo partly drawn) [Compound 1], in experiment [2] (Table 2A), the pEC50 was at least 8.30. Take `COC(=O)N[C@H](C(=O)N1CCC[C@H]1c1nc2sc(C#CC#Cc3cc4[nH]c([C@@H]5CCCN5C(=O)[C@@H](NC(=O)OC)C(C)C)nc4s3)cc2[nH]1)C(C)C` [Compound 3b]: the EC50 in experiment [1] (setting [3]) worked out at 0.282 µM. In experiment [2] (Table 2A), `COC(=O)N[C@H](C(=O)N1C[C@@H](C)C[C@H]1c1ncc(C#Cc2ccc(-c3ccc(-c4cc5[nH]c([C@@H]6C[C@H](C)CN6C(=O)[C@@H](NC(=O)OC)C(C)C)nc5s4)s3)cc2)[nH]1)C(C)C` [Compound 21] gave a pEC50 of at least 8.30.

These data come from patent publication US20130090364A1, “ANALOGUES FOR THE TREATMENT OR PREVENTION OF FLAVIVIRUS INFECTIONS” (priority 2010, published 2013).
